Laboratory results reported in patent US20260242352A1, “INHIBITION OF SHIP1 AS A THERAPEUTIC STRATEGY FOR THE TREATMENT OF ALZHEIMER'S DISEASE” (The Trustees of Indiana University, priority 2022, published 2026).

Legend:
HMC3 cells = assay: pHrodo-myelin phagocytosis/cell health assay, HMC3 cells; assay type: cell-based; conditions: Homo sapiens, compound 48 hrs, 60 μM to 3 nM, (n) in cell
Protocol: pHrodo-myelin phagocytosis/cell health assay with microglial cells. This 384-well plate high content imaging assay was developed to quantify phagocytosis and cell health simultaneously using either BV2 or HMC3 immortalized microglial cell lines or primary microglia isolated from mouse brain. Cells were cultured in DMEM GlutaMax media (ThermoFisher) containing 10% FBS and Pen-Strep in 37° C. 5% CO2 incubator.
Day 1: Cells were plated (Corning Falcon 384 well Optilux Black and clear bottom plates for imaging) with BV2 at 400 cells/45 μl/well, HMC3 at 600 cells/45 μl/well, or primary at 2000 cell/45 μl/well.
Day 2: Cells were treated with 10× serially diluted compounds in a dose range of 60 μM to 3 nM for 48 hrs at 37° C.
Day 3: Cells were seeded with pHrodo-myelin (for total 20 hrs) 24 hrs after starting compound treatment. The pHrodo-myelin stocks were at 1 mg/ml (protein equivalent) stored in −20° C. or −80° C. freezer. Stocks were thawed and diluted with culture media into 10× seeding solution (50 μg/ml) and added 5 μl/well to 384 well cell plate.
Day 4: Cell staining and imaging. Nuclear staining solution was prepared by adding 1 μl of 10 mg/mL Hoechst-33342 to every 1 ml culture media that will be added to cell plate at 20 μl/well. The final concentration of Hoechst-33342 to cells was about 2.5 μg/ml. Cell plates were incubated for >30 min at 37° C. before imaging. Cell plates were scanned with an ArrayScan automatic high content imaging system using a 10× objective lens, 4 fields/well collected. Three measurements were obtained 1) mean total phagocytosis spot intensity per cell, 2) total cell counts per well, and 3) mean average nuclear intensity per cell for cell health.
This 384-well plate high content imaging assay was developed to quantify phagocytosis and cell health simultaneously using either BV2 or HMC3 immortalized microglial cell lines or primary microglia isolated from mouse brain. Cells were cultured in DMEM GlutaMax media (ThermoFisher) containing 10% FBS and Pen-Strep in 37° C. 5% CO2 incubator. Day 1: Cells were plated (Corning Falcon 384 well Optilux Black and clear bottom plates for imaging) with BV2 at 400 cells/45 μl/well, HMC3 at 600 cells/45 μl/well, or primary at 2000 cell/45 μl/well. Day 2: Cells were treated with 10× serially diluted compounds in a dose range of 60 μM to 3 nM for 48 hrs at 37° C. Day 3: Cells were seeded with pHrodo-myelin (for total 20 hrs) 24 hrs after starting compound treatment. The pHrodo-myelin stocks were at 1 mg/ml (protein equivalent) stored in −20° C. or −80° C. freezer. Stocks were thawed and diluted with culture media into 10× seeding solution (50 μg/ml) and added 5 μl/well to 384 well cell plate. Day 4: Cell staining and imaging. Nuclear staining solution was prepared by adding 1 μl of 10 mg/mL Hoechst-33342 to every 1 ml culture media that will be added to cell plate at 20 μl/well. The final concentration of Hoechst-33342 to cells was about 2.5 μg/ml. Cell plates were incubated for >30 min at 37° C. before imaging. Cell plates were scanned with an ArrayScan automatic high content imaging system using a 10× objective lens, 4 fields/well collected. Three measurements were obtained 1) mean total phagocytosis spot intensity per cell, 2) total cell counts per well, and 3) mean average nuclear intensity per cell for cell health.

SHIP1 = biological target: T1, SHIP1 (Homo sapiens, UniProt Q92835); assay: Malachite green enzyme assay; assay type: biochemical; conditions: Table 1; PI(3,4,5)P3-diC8 52 μM, enzyme 10 nM, SHIP1 Ptase-C2, 25° C., pH7.4; geometric mean; read-out: SHIP1 IC50 μM (n)
T1 sequence (Q92835 396-858): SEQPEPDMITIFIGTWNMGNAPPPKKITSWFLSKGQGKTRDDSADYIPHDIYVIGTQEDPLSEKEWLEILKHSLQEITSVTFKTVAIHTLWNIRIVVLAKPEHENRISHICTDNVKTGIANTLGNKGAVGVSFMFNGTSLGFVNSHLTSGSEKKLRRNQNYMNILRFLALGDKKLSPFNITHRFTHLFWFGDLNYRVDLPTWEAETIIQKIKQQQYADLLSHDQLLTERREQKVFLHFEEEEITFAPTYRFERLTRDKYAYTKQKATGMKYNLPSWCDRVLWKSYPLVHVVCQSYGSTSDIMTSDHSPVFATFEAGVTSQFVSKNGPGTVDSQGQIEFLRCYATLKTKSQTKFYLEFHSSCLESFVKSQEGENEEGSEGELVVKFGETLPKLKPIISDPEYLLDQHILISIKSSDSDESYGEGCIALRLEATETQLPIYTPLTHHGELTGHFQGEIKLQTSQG
Description: The inventors have performed a screen of 50K compounds at the SHIP1 phosphatase, analyzed a publicly available fragment-based screen, and evaluated inhibitors reported in the literature. They utilized the malachite green assay with PtdIns(3,4,5)P3-diC8 and SHIP1 Ptase-C2 to measure inhibitory potency. A Cellular Thermal Shift Assay was used to confirm target engagement in cells. A phosphoAKT assay was used to provide additional evidence of on-target activity. A high-content imaging assay measuring phagocytosis, cell number, and nuclear intensity was implemented using the BV2 and HMC3 cell lines to characterize cellular pharmacology and cytotoxicity. […] Inhibitors predicted to have drug-like properties were subjected to assays measuring solubility, cellular permeability, and mouse microsomal stability. A physiological based pharmacokinetic model was compared to measured exposure in vivo for select compounds upon oral administration in mice.
Malachite Green Enzyme Assay. […] Compounds diluted in DMSO were added to 384-well plates. Enzyme solution was added. After a 20 min incubation period, the reaction was initiated by addition of PI(3,4,5)P3-diC8. Final compound concentrations ranged from 50 nM to 950 μM. Final reaction concentrations for the PI(3,4,5)P3-diC8 substrate and the enzyme were 52 μM and 10 nM respectively. The reaction was quenched after 10 min by adding Malachite BioMol Green (Enzo Lifesciences, PA, USA). Plates were then incubated for 30 min at room temperature. Absorbance (620 nm) was measured using a SpectraMax Me5 Microplate Reader (Molecular Devices, LLC, USA). IC50 values were calculated by fitting absorbance versus inhibitor concentration.
Compounds diluted in DMSO were added to 384-well plates. Enzyme solution was added. After a 20 min incubation period, the reaction was initiated by addition of PI(3,4,5)P3-diC8. Final compound concentrations ranged from 50 nM to 950 μM. Final reaction concentrations for the PI(3,4,5)P3-diC8 substrate and the enzyme were 52 μM and 10 nM respectively. The reaction was quenched after 10 min by adding Malachite BioMol Green (Enzo Lifesciences, PA, USA). Plates were then incubated for 30 min at room temperature. Absorbance (620 nm) was measured using a SpectraMax Me5 Microplate Reader (Molecular Devices, LLC, USA). IC50 values were calculated by fitting absorbance versus inhibitor concentration and are reported as the geometric mean and standard error of mean with the number of repeats (n) indicated. Compounds and activities are as depicted in tables 1 and 2 above.

Compound	EC50 (HMC3 cells) [µM]	IC50 (SHIP1) [µM]
CC(C)(C)OC(=O)N1CCC(n2cc(-c3cncc(OCc4ccccc4Cl)c3)cn2)CC1 [Compound 1, tert-butyl 4-(4-{5-[(2-chlorophenyl)methoxy]pyridin-3-yl}-1H-pyrazol-1-yl)piperidine-1-carboxylate]	15.9	–
CC(C)(C)OC(=O)N1CCC(n2cc(-c3cncc(OCc4ccccc4F)c3)cn2)CC1 [Compound 2, tert-butyl 4-(4-(5-((2-fluorobenzyl)oxy)pyridin-3-yl)-1H-pyrazol-1-yl)piperidine-1-carboxylate]	1.44	81.9
CC(C)(C)OC(=O)N1CCC(n2cc(-c3cncc(OCc4c(Cl)cccc4Cl)c3)cn2)CC1 [Compound 5, tert-butyl 4-(4-(5-((2,6-dichlorobenzyl)oxy)pyridin-3-yl)-1H-pyrazol-1-yl)piperidine-1-carboxylate]	3.72	35.7
CC(C)(C)OC(=O)N1CCC(n2cc(-c3cncc(OCc4ccc(Br)cc4)c3)cn2)CC1 [Compound 7, tert-butyl 4-(4-(5-((4-bromobenzyl)oxy)pyridin-3-yl)-1H-pyrazol-1-yl)piperidine-1-carboxylate]	2.43	57
Cl.Clc1ccccc1COc1cncc(-c2cnn(C3CCNCC3)c2)c1 [Compound 9, 3-((2-chlorobenzyl)oxy)-5-(1-(piperidin-4-yl)-1H-pyrazol-4-yl)pyridine hydrochloride]	0.584	302
Cl.Clc1ccc(COc2cncc(-c3cnn(C4CCNCC4)c3)c2)c(Cl)c1 [Compound 10, 3-((2,4-dichlorobenzyl)oxy)-5-(1-(piperidin-4-yl)-1H-pyrazol-4-yl)pyridine hydrochloride]	0.308	286
C[C@@H](Oc1cncc(-c2cnn(C3CCNCC3)c2)c1)c1ccccc1Cl [Compound 22, (R)-3-(1-(2-chlorophenyl)ethoxy)-5-(1-(piperidin-4-yl)-1H-pyrazol-4-yl)pyridine]	–	152
C[C@@H](Oc1cncc(-c2cnn(C3CCNCC3)c2)c1)c1ccc(Cl)cc1 [Compound 23, (R)-3-(1-(4-chlorophenyl)ethoxy)-5-(1-(piperidin-4-yl)-1H-pyrazol-4-yl)pyridine]	0.145	–

Second part, the compound after the results:

EC50 (HMC3 cells) [µM]	IC50 (SHIP1) [µM]	Compound
4.19	116	Cc1ccccc1COc1cncc(-c2cnn(C3CCN(C(=O)OC(C)(C)C)CC3)c2)c1 [Compound 3, tert-butyl 4-(4-(5-((2-methylbenzyl)oxy)pyridin-3-yl)-1H-pyrazol-1-yl)piperidine-1-carboxylate]
2.01	90.3	CC(C)(C)OC(=O)N1CCC(n2cc(-c3cncc(OCc4ccccc4)c3)cn2)CC1 [Compound 4, tert-butyl 4-(4-(5-(benzyloxy)pyridin-3-yl)-1H-pyrazol-1-yl)piperidine-1-carboxylate]
2.1	–	CC(C)(C)CCN1CCC(n2cc(-c3cncc(OCc4ccccc4Cl)c3)cn2)CC1 [Compound 15, 3-((2-chlorobenzyl)oxy)-5-(1-(1-(3,3-dimethylbutyl)piperidin-4-yl)-1H-pyrazol-4-yl)pyridine]
2.07	102	CC(C)(C)CC(=O)N1CCC(n2cc(-c3cncc(OCc4ccccc4Cl)c3)cn2)CC1 [Compound 16, 1-(4-(4-(5-((2-chlorobenzyl)oxy)pyridin-3-yl)-1H-pyrazol-1-yl)piperidin-1-yl)-3,3-dimethylbutan-1-one]
0.722	–	C[C@H](Oc1cncc(-c2cnn(C3CCNCC3)c2)c1)c1ccccc1Cl [Compound 21, (S)-3-(1-(2-chlorophenyl)ethoxy)-5-(1-(piperidin-4-yl)-1H-pyrazol-4-yl)pyridine]
1.35	851	Cc1ccccc1COc1cncc(-c2cnn(C3CCNCC3)c2)c1 [Compound 25, 3-[(2-Methylphenyl)methoxy]-5-[1-(piperidin-4-yl)-1H-pyrazol-4-yl]pyridine]
–	690	Clc1ccccc1COc1cncc(-c2ccn(C3CCNCC3)n2)c1 [Compound 26, 3-((2-chlorobenzyl)oxy)-5-(1-(piperidin-4-yl)-1H-pyrazol-3-yl)pyridine]
–	332	Clc1ccccc1COc1cncc(-n2ccc(C3CCNCC3)n2)c1 [Compound 27, 3-((2-chlorobenzyl)oxy)-5-(3-(piperidin-4-yl)-1H-pyrazol-1-yl)pyridine]
–	601	Clc1ccccc1COc1cncc(-n2cc(C3CCNCC3)cn2)c1 [Compound 28, 3-((2-chlorobenzyl)oxy)-5-(4-(piperidin-4-yl)-1H-pyrazol-1-yl)pyridine]
–	186	Clc1ccccc1COc1cccc(-c2cnn(C3CCNCC3)c2)c1 [Compound 29, 4-(4-(3-((2-chlorobenzyl)oxy)phenyl)-1H-pyrazol-1-yl)piperidine]
